Measurements published in ChEMBL document CHEMBL4024706 (Eur J Med Chem, 2017).

Key:
MV4-11 = experiment: Growth inhibition of human MV411 cells; type: functional; conditions: Homo sapiens, MV4-11
[1] = target: Tyrosine-protein kinase BTK (Homo sapiens, UniProt Q06187); experiment: Inhibition of BTK auto-phosphorylation at Y223 in human U2932 cells measured after 4 hrs by chemiluminescent assay
[2] = target: AP2-associated protein kinase 1 (Homo sapiens) (UniProt Q2M2I8); experiment: Inhibition of human wild-type AAK1 (G25 to L333 residues) expressed in bacterial expression system assessed as residual activity at 1 uM by Kinomescan method relative to control
[3] = test system: Tyrosine-protein kinase ABL1 (Homo sapiens), P00519 [Q252H]; experiment: Inhibition of human non-phosphorylated ABL1 Q252H mutant (S229 to K512 residues) expressed in mammalian expression system assessed as residual activity at 1 uM by Kinomescan method relative to control
[4] = test system: Tyrosine-protein kinase ABL1 (Homo sapiens), P00519 [T315I]; experiment: Inhibition of human non-phosphorylated ABL1 T315I mutant (S229 to K512 residues) expressed in mammalian expression system assessed as residual activity at 1 uM by Kinomescan method relative to control
[5] = target: RAC-beta serine/threonine-protein kinase (Homo sapiens) (UniProt P31751); experiment: Inhibition of wild-type human partial length AKT2 expressed in bacterial expression system assessed as residual activity at 1 uM by Kinomescan method relative to control
Sequence of RAC-beta serine/threonine-protein kinase (Homo sapiens) (P31751 whole entry, the tested form may be a part): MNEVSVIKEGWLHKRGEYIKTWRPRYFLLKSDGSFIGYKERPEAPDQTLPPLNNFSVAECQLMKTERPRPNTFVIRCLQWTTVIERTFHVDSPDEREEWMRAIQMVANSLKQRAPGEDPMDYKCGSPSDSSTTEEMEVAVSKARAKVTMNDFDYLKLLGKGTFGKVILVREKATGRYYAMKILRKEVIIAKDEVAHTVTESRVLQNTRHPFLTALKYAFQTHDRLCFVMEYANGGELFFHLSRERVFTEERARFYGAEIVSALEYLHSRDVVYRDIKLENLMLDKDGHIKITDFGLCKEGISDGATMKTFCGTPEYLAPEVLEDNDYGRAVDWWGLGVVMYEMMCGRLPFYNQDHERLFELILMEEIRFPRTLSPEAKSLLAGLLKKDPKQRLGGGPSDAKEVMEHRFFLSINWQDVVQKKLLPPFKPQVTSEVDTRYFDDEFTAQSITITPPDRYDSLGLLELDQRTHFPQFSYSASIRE

[6] = target: Aurora kinase B (Homo sapiens) (UniProt Q96GD4); experiment: Inhibition of wild-type human partial length AURKB (D25 to A303 residues) expressed in mammalian expression system assessed as residual activity at 1 uM by Kinomescan method relative to control
[7] = target: Calcium/calmodulin-dependent protein kinase type 1D (Homo sapiens) (UniProt Q8IU85); experiment: Inhibition of wild-type human partial length CAMK1D (M1 to K299 residues) expressed in bacterial expression system assessed as residual activity at 1 uM by Kinomescan method relative to control
[8] = target: Calcium/calmodulin-dependent protein kinase type II subunit gamma (Homo sapiens) (UniProt Q13555); experiment: Inhibition of wild-type human partial length CAMK2G (R9 to A303 residues) expressed in bacterial expression system assessed as residual activity at 1 uM by Kinomescan method relative to control
Sequence of Calcium/calmodulin-dependent protein kinase type II subunit gamma (Homo sapiens) (Q13555 whole entry, the tested form may be a part): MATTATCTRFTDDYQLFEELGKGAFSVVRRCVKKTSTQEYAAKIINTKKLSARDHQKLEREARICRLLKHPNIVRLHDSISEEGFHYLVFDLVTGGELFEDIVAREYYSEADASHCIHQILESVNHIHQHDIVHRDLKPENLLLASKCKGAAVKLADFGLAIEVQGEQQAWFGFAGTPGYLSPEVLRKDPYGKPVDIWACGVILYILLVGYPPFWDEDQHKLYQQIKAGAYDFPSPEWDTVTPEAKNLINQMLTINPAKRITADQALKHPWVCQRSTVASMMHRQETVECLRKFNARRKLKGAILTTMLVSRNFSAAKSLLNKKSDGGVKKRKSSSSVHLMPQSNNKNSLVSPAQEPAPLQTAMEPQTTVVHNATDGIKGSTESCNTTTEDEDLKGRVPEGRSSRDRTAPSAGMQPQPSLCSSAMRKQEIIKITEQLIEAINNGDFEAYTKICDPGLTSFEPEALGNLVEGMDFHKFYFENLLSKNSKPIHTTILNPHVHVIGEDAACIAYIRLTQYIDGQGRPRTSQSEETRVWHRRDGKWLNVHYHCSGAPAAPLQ

[9] = target: Cyclin-dependent kinase-like 5 (Homo sapiens) (UniProt O76039); experiment: Inhibition of wild-type human partial length CDKL5 (M1 to S337 residues) expressed in mammalian expression system assessed as residual activity at 1 uM by Kinomescan method relative to control
Sequence of Cyclin-dependent kinase-like 5 (Homo sapiens) (O76039 whole entry, the tested form may be a part): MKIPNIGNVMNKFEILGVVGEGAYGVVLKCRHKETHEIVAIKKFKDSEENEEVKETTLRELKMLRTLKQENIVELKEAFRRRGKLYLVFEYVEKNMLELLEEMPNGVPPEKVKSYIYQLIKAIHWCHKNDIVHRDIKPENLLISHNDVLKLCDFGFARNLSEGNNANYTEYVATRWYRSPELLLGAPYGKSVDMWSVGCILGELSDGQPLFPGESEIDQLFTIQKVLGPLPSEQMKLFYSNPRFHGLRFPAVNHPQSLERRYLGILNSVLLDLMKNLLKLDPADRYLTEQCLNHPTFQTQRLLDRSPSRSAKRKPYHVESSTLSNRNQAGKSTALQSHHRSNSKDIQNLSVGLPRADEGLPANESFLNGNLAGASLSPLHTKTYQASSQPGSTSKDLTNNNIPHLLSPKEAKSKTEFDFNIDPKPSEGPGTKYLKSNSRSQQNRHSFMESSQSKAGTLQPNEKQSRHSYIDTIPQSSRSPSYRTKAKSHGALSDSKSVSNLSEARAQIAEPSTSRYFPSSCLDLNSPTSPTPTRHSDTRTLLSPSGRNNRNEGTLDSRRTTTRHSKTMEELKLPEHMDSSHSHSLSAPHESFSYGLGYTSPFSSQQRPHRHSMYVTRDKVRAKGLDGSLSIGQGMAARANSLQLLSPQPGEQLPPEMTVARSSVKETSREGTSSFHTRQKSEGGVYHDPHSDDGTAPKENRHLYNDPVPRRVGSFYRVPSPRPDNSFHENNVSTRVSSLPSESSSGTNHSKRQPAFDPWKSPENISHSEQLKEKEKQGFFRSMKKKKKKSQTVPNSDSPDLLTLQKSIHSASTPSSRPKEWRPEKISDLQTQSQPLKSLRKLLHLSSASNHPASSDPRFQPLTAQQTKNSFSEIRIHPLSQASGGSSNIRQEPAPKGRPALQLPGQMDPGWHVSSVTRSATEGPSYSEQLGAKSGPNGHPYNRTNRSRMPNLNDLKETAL

[10] = target: Serine/threonine-protein kinase DCLK1 (Homo sapiens) (UniProt O15075); experiment: Inhibition of wild-type human partial length DCAMKL1 (L270 to A662 residues) expressed in mammalian expression system assessed as residual activity at 1 uM by Kinomescan method relative to control
[11] = test system: Epidermal growth factor receptor (Homo sapiens), P00533 [UNDEFINED MUTATION]; experiment: Inhibition of human partial length EGFR L747-S752del/P753S mutant expressed in bacterial expression system assessed as residual activity at 1 uM by Kinomescan method relative to control
[12] = target: Receptor tyrosine-protein kinase erbB-2 (Homo sapiens) (UniProt P04626); experiment: Inhibition of wild-type human partial length ERBB2 (K646 to V1225 residues) expressed in mammalian expression system assessed as residual activity at 1 uM by Kinomescan method relative to control
[13] = target: Glycogen synthase kinase-3 beta (Homo sapiens) (UniProt P49841); experiment: Inhibition of wild-type human full length GSK3B (M1 to T433 residues) expressed in mammalian expression system assessed as residual activity at 1 uM by Kinomescan method relative to control
[14] = target: Insulin receptor-related protein (Homo sapiens) (UniProt P14616); experiment: Inhibition of wild-type human partial length INSRR (R950 to E1278 residues) expressed in bacterial expression system assessed as residual activity at 1 uM by Kinomescan method relative to control
[15] = target: Mitogen-activated protein kinase 10 (Homo sapiens) (UniProt P53779); experiment: Inhibition of wild-type human partial length JNK3 (V28 to Q422 residues) expressed in mammalian expression system assessed as residual activity at 1 uM by Kinomescan method relative to control
Sequence of Mitogen-activated protein kinase 10 (Homo sapiens) (P53779 whole entry, the tested form may be a part): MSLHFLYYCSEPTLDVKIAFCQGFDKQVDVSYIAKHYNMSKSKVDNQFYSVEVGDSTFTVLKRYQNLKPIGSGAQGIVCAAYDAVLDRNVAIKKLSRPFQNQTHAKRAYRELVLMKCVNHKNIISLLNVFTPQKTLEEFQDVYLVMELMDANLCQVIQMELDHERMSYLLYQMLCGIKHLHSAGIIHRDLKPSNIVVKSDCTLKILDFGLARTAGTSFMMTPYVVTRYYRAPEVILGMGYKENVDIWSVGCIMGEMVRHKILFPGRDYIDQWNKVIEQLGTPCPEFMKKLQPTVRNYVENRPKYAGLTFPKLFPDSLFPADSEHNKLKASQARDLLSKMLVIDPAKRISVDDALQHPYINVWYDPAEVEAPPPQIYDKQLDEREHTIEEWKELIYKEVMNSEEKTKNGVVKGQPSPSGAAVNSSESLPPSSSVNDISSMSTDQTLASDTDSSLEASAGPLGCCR

[16] = test system: Mast/stem cell growth factor receptor Kit (Homo sapiens), P10721 [A829P]; experiment: Inhibition of human partial length KIT A829P mutant (I571 to D952 residues) expressed in mammalian expression system assessed as residual activity at 1 uM by Kinomescan method relative to control
[17] = target: Serine/threonine-protein kinase NLK (Homo sapiens) (UniProt Q9UBE8); experiment: Inhibition of wild-type human full length NLK (M13 to E527 residues) expressed in bacterial expression system assessed as residual activity at 1 uM by Kinomescan method relative to control
[18] = test system: Phosphatidylinositol 4,5-bisphosphate 3-kinase catalytic subunit alpha isoform (Homo sapiens), P42336 [H1047L]; experiment: Inhibition of human partial length PIK3CA H1047L mutant (R108 to N1068 residues) expressed in mammalian expression system assessed as residual activity at 1 uM by Kinomescan method relative to control
[19] = target: 1-phosphatidylinositol 3-phosphate 5-kinase (Homo sapiens) (UniProt Q9Y2I7); experiment: Inhibition of wild-type human partial length PIKFYVE (F1512 to C2098 residues) expressed in mammalian expression system assessed as residual activity at 1 uM by Kinomescan method relative to control
[20] = target: Serine/threonine-protein kinase D1 (Homo sapiens) (UniProt Q15139); experiment: Inhibition of wild-type human partial length PRKD1 (G551 to E870 residues) expressed in bacterial expression system assessed as residual activity at 1 uM by Kinomescan method relative to control
[21] = target: Interferon-induced, double-stranded RNA-activated protein kinase (Homo sapiens) (UniProt P19525); experiment: Inhibition of wild-type human partial length PRKR (F247 to C551 residues) expressed in bacterial expression system assessed as residual activity at 1 uM by Kinomescan method relative to control
[22] = target: Serine/threonine-protein kinase RIO1 (Homo sapiens) (UniProt Q9BRS2); experiment: Inhibition of wild-type human full length RIOK1 (M1 to K568 residues) expressed in bacterial expression system assessed as residual activity at 1 uM by Kinomescan method relative to control
Sequence of Serine/threonine-protein kinase RIO1 (Homo sapiens) (Q9BRS2 whole entry, the tested form may be a part): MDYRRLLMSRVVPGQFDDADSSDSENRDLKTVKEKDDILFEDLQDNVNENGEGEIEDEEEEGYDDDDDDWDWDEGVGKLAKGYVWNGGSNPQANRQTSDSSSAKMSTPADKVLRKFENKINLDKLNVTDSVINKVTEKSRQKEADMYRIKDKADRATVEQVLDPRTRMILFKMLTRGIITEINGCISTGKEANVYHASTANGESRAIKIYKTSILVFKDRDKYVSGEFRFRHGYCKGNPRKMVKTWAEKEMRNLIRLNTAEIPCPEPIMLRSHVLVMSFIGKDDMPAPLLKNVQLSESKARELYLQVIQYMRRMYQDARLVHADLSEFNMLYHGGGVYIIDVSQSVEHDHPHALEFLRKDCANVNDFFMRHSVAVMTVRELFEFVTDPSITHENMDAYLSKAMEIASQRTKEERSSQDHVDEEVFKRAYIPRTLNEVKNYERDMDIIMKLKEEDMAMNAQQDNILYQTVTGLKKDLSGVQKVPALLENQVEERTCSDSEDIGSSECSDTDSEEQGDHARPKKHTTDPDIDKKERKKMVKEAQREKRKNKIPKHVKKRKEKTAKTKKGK

[23] = target: Tyrosine-protein kinase receptor Tie-1 (Homo sapiens) (UniProt P35590); experiment: Inhibition of wild-type human partial length TIE1 (T819 to A1138 residues) expressed in bacterial expression system assessed as residual activity at 1 uM by Kinomescan method relative to control
[24] = target: Angiopoietin-1 receptor (Homo sapiens) (UniProt Q02763); experiment: Inhibition of wild-type human partial length TIE2 (N804 to T1112 residues) expressed in bacterial expression system assessed as residual activity at 1 uM by Kinomescan method relative to control
[25] = target: TRAF2 and NCK-interacting protein kinase (Homo sapiens) (UniProt Q9UKE5); experiment: Inhibition of wild-type human partial length TNIK (D4 to K311 residues) expressed in bacterial expression system assessed as residual activity at 1 uM by Kinomescan method relative to control
Sequence of TRAF2 and NCK-interacting protein kinase (Homo sapiens) (Q9UKE5 whole entry, looked up, the tested form may be a part): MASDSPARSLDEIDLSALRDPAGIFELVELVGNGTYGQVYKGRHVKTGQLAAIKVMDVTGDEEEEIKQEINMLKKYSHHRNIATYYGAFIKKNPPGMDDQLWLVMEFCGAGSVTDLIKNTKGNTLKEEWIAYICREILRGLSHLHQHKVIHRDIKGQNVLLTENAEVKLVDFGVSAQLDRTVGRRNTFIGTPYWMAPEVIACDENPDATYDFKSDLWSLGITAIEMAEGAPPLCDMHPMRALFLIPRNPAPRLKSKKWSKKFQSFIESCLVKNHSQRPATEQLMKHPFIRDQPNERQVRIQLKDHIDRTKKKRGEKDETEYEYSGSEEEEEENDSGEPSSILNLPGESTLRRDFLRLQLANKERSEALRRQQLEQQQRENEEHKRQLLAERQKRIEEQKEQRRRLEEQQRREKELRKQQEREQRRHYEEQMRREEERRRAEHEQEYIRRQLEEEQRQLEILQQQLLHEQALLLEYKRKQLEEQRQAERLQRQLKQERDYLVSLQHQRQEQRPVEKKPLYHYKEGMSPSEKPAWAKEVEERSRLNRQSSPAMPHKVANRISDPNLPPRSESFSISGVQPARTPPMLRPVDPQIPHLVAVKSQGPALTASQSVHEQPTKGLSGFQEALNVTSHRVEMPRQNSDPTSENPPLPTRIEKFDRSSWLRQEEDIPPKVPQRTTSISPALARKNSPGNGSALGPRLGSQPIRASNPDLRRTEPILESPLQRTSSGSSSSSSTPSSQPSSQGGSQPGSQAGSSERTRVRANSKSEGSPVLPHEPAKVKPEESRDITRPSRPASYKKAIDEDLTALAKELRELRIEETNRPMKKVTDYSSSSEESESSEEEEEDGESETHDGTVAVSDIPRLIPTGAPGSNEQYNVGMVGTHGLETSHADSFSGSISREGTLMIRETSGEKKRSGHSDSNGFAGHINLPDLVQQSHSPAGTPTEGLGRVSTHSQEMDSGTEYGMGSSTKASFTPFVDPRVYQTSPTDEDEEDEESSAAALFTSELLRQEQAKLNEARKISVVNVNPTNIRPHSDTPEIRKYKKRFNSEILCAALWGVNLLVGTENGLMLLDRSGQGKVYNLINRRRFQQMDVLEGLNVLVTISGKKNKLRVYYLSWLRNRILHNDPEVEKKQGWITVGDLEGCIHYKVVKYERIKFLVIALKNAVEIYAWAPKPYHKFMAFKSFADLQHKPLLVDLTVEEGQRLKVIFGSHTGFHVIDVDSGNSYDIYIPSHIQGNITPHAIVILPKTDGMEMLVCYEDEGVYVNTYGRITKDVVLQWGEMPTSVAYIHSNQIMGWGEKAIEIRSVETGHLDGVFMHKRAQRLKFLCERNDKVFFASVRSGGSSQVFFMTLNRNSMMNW

Sequence of Tyrosine-protein kinase BTK (Q06187 whole entry, the tested form may be a part): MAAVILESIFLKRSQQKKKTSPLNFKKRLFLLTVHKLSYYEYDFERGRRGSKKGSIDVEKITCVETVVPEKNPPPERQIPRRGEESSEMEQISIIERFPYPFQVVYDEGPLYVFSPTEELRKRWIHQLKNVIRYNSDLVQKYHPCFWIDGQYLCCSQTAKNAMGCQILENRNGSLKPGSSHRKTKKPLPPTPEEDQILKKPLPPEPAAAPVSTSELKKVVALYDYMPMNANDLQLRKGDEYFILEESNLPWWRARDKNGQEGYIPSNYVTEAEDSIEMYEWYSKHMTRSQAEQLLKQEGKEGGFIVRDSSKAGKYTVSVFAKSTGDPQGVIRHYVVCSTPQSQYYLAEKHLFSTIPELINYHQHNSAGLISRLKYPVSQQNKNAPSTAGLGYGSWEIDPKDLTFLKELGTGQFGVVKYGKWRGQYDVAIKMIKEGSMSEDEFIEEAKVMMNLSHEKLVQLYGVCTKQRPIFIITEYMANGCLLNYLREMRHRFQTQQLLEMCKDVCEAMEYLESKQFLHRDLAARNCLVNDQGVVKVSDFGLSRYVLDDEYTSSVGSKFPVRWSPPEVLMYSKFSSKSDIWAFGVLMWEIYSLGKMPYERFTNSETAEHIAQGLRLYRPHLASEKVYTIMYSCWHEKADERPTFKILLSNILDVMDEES

In the case of C=CC(=O)Nc1cc(Nc2cc(-c3cccc(NC(=O)c4ccc(C(C)(C)C)cc4)c3C)cn(C)c2=O)ccc1C(=O)N1CCOCC1, the GI50 (MV4-11) is reported as 2.1 µM, the EC50 [1] is reported as less than 0.03 µM and the Activity [2] is reported as 96%. It also gave an Activity [3] of 100%, an Activity [4] of 99% and an Activity [5] of 95%. It also gave an Activity [6] of 98%, an Activity [7] of 97% and an Activity [8] of 100%. It also gave an Activity [9] of 100%, an Activity [10] of 95% and an Activity [11] of 88%. For the same compound, the Activity [12] was 97%, the Activity [13] was 87% and the Activity [14] was 100%. It also gave an Activity [15] of 91%, an Activity [16] of 93% and an Activity [17] of 63%. It also gave an Activity [18] of 56%, an Activity [19] of 96% and an Activity [20] of 100%. For the same compound, the Activity [21] was 100%, the Activity [22] was 100% and the Activity [23] was 87%. For the same compound, the Activity [24] was 100% and the Activity [25] was 97%.
